The values below come from US20250230149A1, “MGLUR5 MODULATING COMPOUNDS, COMPOSITIONS, AND METHODS OF USE” (Allyx Therapeutics, Inc., priority 2022, published 2025).

“Also recorded” adds a separate entry of the source.

In one data set the test system is dKI mice. Briefly: Immunohistochemical staining of SV2A and PSD-95 in APPNLGF/MAPT (dKI) mouse model. Type of data set: in vivo. To be noted: 3.75 mg/kg q12 oral, at least 28 days. How it is done: The objective of this study was to assess synaptic density of control and Amyloid Precursor Protein carrying NL-G-F mutations/Microtubule-associated protein tau (APP^NLGF/MAPT) (dKI—double knock-in) mice before and after treatment with Compound 1. Vehicle (95% PEG-400/5% Solutol) or Compound 1 at 7.5 mg/kg/day (3.75 mg/kg q12) was given to control and dKI mice for at least 28 days by oral administration.
Reduced synaptic density in dKI samples relative to controls was confirmed by immunohistochemical staining of pre- and post-synaptic markers (SV2A and PSD-95) in hippocampal and cortical sections.

Data set [1] has as its target aryl hydrocarbon receptor (AhR) (Homo sapiens, UniProt P35869). Briefly: AhR receptor activation, human. Type of data set: in vitro ADME. The settings on record: at 30 μM. From the text: (§1) The objective of this study was to determine the human and rat pregnane X receptor (PXR) and human and rat aryl hydrocarbon receptor (AhR) receptor activation potential of Compound 1 Form A. The activation of PXR is a marker for induction of CYP3A4/5 and […] and the activation of AhR is a marker for induction of CYP1A.

Data set [2] concerns the target T1, pregnane X receptor (PXR) (Homo sapiens, UniProt O75469).
T1 sequence (O75469 1-434): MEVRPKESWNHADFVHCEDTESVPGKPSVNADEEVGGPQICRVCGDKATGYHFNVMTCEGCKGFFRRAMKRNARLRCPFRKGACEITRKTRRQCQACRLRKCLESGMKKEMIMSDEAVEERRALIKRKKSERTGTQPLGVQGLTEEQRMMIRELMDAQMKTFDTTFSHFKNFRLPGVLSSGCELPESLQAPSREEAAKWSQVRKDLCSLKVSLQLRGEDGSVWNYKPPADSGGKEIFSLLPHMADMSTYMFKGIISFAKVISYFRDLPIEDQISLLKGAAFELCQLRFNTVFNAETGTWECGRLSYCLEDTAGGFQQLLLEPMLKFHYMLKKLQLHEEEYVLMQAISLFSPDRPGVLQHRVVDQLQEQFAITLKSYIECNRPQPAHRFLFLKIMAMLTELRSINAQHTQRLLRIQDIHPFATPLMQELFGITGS
Briefly: PXR receptor activation, human. Type of data set: in vitro ADME.
From the text: as §1

The subject of another data set is C1q. The data set is described as follows: C1q production, synaptic localization and synaptic engulfment. Set-up: species or system mice. To be noted: mouse, in vivo. The text has this: (§2) Compound 1 (e.g., Form A) prevented Alzheimer's triggered aberrant synaptic signaling while preserving physiological Glu activation. Studies have been conducted to show oral Compound 1 effectively occupied brain mGluR5 sites visualized by [^18F]FPEB PET at doses 250-fold below adverse effect levels in rodent and non-human primate. […] Production of the microglial mediator, C1q, was not altered by Compound 1, but Alzheimer-gene-dependent C1q localization to synapses and synaptic engulfment were prevented. Thus, selective modulation of mGluR5 reversed neuronal gene expression changes to protect synapses from damage by microglial mediators.

The subject of a further data set is C57/BI6J mice. Briefly: Prevention of positive allosteric modulator (PAM) induced seizures. Type of data set: in vivo. The settings on record: oral gavage 2 hours before PAM 20 mg/kg i.p. How it is done: The objective of this study was to assess the enantiomeric selectivity of Compound 1 for the mGluR5 receptor as a function of seizure prevention. It had been previously reported that PAMs of mGluR5 are capable of inducing seizures in C57/BI6J mice.
Compound 1 (0.12, 0.24, 0.47, 0.94, 1.88, 3.75 or 7.5 mg/kg), enantiomer of Compound 1 (7.5, 15 or 30 mg/kg) or vehicle were administered by oral gavage to C57/BI6J mice of 3-11 months of age. After 2 hours, a PAM compound was administered at 20 mg/kg via intraperitoneal injection. Animals were then placed in a 10 inch diameter acrylic cage for observation and video recording for 2 h post dose and seizures were scored using the Racine seizure scoring criteria and normalized to a scale of 0-1.

The next data set relates to double knock-in mice. The data set is described as follows: Tau accumulation in double knock-in mice. Type of data set: in vivo.
From the text: as §2

Data set [3] has as its target pregnane X receptor (PXR) (Rattus norvegicus, UniProt Q9R1A7). Briefly: PXR receptor activation, rat. Type of data set: in vitro ADME. To be noted: at 30 μM.
From the text: as §1

For data set [4], the system named is APP/PS1 mice. Briefly: Immunohistochemical staining of SV2A and PSD-95 in APP/PS1 mouse model with washout. Type of data set: in vivo. How it is done:
(§3) The objective of this study was to assess synaptic density of control and APP/PS1 mice before and after treatment with Compound 1, and to assess the reversibility of any observed effects following a drug washout period.
(§4) Vehicle (95% polyethylene glycol (PEG) 400/5% solutol) or Compound 1 at 7.5 mg/kg/day (3.75 mg/kg q12) was given to control and APP/PS1 mice for at least 28 days by oral administration. A subset of mice stopped treatment after four weeks, then underwent a four-week washout period.
Reduced synaptic density in APP/PS1 samples relative to controls was confirmed by immunohistochemical staining of pre- and post-synaptic markers (SV2A and PSD-95) in hippocampal and cortical sections.

Data set [5] concerns APP/PS1 mice. Briefly: SV2A PET imaging of synaptic density in APP/PS1 mouse model. Type of data set: in vivo. The settings on record: 12 months of age, one-month treatment, 3.75 mg/kg q12 oral. How it is done:
as §3, §4
To further maximize translational relevance, in other studies mice were aged to the point that synapse loss was detectable using SV2A PET. At 12 months of age, synapse density, as measured by hippocampal/brainstem [^18F]SDM-8 SUVR-1, is reduced in APP/PS1 mice relative to wild-type.

Sequence of aryl hydrocarbon receptor (AhR) (P35869 11-848): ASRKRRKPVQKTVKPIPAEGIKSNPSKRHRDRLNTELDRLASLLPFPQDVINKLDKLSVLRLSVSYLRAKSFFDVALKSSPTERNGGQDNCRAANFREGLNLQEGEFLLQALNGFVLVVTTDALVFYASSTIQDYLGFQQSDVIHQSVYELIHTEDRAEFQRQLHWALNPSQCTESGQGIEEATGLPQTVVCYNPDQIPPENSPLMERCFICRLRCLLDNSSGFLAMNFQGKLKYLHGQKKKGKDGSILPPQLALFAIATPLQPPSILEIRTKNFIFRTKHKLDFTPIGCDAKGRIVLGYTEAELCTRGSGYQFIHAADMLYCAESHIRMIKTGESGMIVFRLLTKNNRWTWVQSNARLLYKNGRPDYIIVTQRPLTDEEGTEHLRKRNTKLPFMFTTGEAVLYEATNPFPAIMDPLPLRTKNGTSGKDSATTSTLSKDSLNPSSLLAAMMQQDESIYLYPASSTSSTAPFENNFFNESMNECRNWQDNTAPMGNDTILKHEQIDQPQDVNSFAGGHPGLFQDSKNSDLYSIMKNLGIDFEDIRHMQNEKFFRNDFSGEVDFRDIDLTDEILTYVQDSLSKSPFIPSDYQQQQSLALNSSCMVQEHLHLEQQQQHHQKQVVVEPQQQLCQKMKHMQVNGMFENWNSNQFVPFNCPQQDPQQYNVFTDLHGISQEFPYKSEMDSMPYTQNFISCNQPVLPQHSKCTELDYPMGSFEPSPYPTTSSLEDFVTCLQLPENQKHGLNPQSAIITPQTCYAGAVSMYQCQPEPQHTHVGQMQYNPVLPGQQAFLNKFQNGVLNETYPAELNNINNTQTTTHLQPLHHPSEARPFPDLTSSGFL
Sequence of pregnane X receptor (PXR) (Rattus norvegicus, UniProt Q9R1A7) (Q9R1A7 whole entry): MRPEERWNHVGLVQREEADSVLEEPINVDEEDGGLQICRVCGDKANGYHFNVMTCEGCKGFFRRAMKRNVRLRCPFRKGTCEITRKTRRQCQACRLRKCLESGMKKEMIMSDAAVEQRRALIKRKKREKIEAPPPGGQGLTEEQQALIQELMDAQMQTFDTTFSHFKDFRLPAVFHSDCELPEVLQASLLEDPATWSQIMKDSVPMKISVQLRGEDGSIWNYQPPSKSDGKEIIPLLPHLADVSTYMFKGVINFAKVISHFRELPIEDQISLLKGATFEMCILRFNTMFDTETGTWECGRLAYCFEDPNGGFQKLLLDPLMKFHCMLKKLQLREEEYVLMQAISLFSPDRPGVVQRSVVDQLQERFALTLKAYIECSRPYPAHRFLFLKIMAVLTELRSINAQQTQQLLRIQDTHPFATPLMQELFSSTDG

For `O=C1N[C@H](c2cncc(C#Cc3ccccc3)c2)[C@@H](c2ccccc2Cl)O1` [Compound 1, (4R,5R)-5-(2-chlorophenyl)-4-(5-(phenylethynyl)pyridin-3-yl)oxazolidin-2-one], in the data set with dKI mice, the “SV2A and PSD-95 staining in the cerebral cortex, relative to vehicle” value was “significant increases”; the “SV2A staining in hippocampus, relative to vehicle” value is recorded as “significant increases”. Further, in data set [1], the “AhR activation, % of the positive control” value came out at 1.11% and the “mean maximum fold activation of AhR” value is reported as 1.78 fold. For the same molecule, in data set [2], the “PXR activation, % of the positive control” value worked out at 29.6%; the “calculated F2 value, PXR” value is on record as 5.05 UM; the “mean maximum fold activation of PXR” value was found to be 4.58 fold. Besides, in the data set on C1q, the “Alzheimer-gene-dependent C1q localization to synapses and synaptic engulfment” value is reported as “prevented”; the “production of the microglial mediator C1q” value is “not altered”. The seizure prevention activity entry in the data set on C57/BI6J mice (Compound 1 0.12-7.5 mg/kg, enantiomer 7.5-30 mg/kg) was “dose dependent prevention”. Also, the “IC50 of inhibition of PAM-induced seizures” value with C57/BI6J mice (Racine score) is listed as 1.09 mg/kg. Moreover, the Tau accumulation result in the data set with double knock-in mice was “reduced”. In addition, the “mean activation of PXR” value in [3] was found to be 4.70 fold. The “SV2A and PSD-95 staining in hippocampal and cortical sections, relative to vehicle” value in the data set with APP/PS1 mice [4] (3.75 mg/kg q12 oral, at least 28 days) was “significant increases”. Also, in the data set on APP/PS1 mice [4] (one month washout period), the “rescue of synaptic density after washout” value is recorded as “persists after drug washout; also recorded: preserved”. In the data set on APP/PS1 mice [5], the “synaptic density, SV2A PET (hippocampal/brainstem [18F]SDM-8 SUVR-1)” value is given as “fully recovered; also recorded: highly significant increase”.
